This passage reports LD99 results from ChEMBL document CHEMBL1148926, “Blanchaquinone: a new anthraquinone from an Australian Streptomyces sp” (2004).

The assay concerns Bacillus subtilis. As to the kind of experiment: Antibacterial activity against Bacillus subtilis ATCC 6633 after 24 hrs by microtiter plate assay. The format is functional.
`CC[C@@]1(O)C[C@H](O)c2c(O)c3c(c(O)c2[C@H]1C(=O)OC)C(=O)c1cccc(O)c1C3=O` showed an LD99 of 0.8 µg/mL. With `CCc1ccc2c(O)c3c(c(O)c2c1)C(=O)c1cccc(O)c1C3=O` the figure was 13 µg/mL; with `COC(=O)Cc1cc2c(c(O)c1C(C)=O)C(=O)c1c(O)cccc1C2=O`, 3 µg/mL. In turn, `COC(=O)[C@@H]1c2c(O)c3c(c(O)c2[C@@H](O)C[C@@]1(C)O)C(=O)c1c(O)cccc1C3=O` showed an LD99 of 6 µg/mL. `COC(=O)[C@@H]1c2c(O)c3c(c(O)c2[C@@H](O)C[C@]1(O)CC(C)=O)C(=O)c1c(O)cccc1C3=O` came in with an LD99 of 13 µg/mL.

Consider `CCCCC(=O)c1c(CC(=O)OC)cc2c(c1O)C(=O)c1c(O)cccc1C2=O` [BLANCHAQUINONE], for which the LD99 was found to be 6 µg/mL.
